Reference: article PMC6009955, “Synthesis of new pyridothienopyrimidinone and pyridothienotriazolopyrimidine derivatives as pim-1 inhibitors” (Journal of Enzyme Inhibition and Medicinal Chemistry, 2017)
Read-outs that look alike come from different tables or passages of the source.

Columns and labels:
[1] = test system: pim-1; settings: cited from earlier work
[2] = target: T1, Human proto-oncogene serine/threonine-protein kinase pim-1 (PIM1) (Homo sapiens, UniProt P11309); experiment: Pim-1 kinase inhibitory activity (PIM1 ELISA kit); format: biochemical; settings: for inhibition at 25 µM: read-out: % Inhibition at 25µM; for IC50: tested at 0.2, 1, 5 and 25 µM
T1 construct: purchased MBS7573
T1 sequence (P11309 whole entry): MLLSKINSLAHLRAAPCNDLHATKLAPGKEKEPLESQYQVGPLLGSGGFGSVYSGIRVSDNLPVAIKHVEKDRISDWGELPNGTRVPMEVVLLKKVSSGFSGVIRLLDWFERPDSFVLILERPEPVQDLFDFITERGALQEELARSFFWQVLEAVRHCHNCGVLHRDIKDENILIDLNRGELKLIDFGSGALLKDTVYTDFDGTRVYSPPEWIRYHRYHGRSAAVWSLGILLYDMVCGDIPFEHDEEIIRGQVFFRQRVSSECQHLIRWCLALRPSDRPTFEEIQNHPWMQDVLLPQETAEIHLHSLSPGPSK
Protocol: The kinase inhibitory activity of the synthesised compounds was determined using Human proto-oncogene serine/threonine-protein kinase pim-1 (PIM1) ELISA Kit (catalog #MBS7573). All the compounds were tested for their inhibitory activity against pim-1 kinase at 0.2, 1, 5 and 25 µM using Staurosporine as a reference standard.

[3] = test system: human breast adenocarcinoma (MCF7); experiment: In vitro cytotoxic activity, MTT method, MCF7; format: cell-based; settings: MCF-7, MTT, 48 h incubation, means of three experiments
Protocol: Cell line cells were obtained from American Type Culture Collection (ATCC, Manassas, VA). The cell lines used in this study were human breast adenocarcinoma (MCF7) and human colon adenocarcinoma (HCT116). The cells were cultured using DMEM (Invitrogen/Life Technologies) supplemented with 10% FBS (Hyclone), 10 µg/mL insulin (Sigma) and 1% penicillin-streptomycin. All of the other chemicals and reagents were from Sigma or Invitrogen. […] The culture medium was removed to a centrifuge tube. The cell layer was rinsed with 0.25% (w/v) Trypsin 0.53 mM EDTA solution to remove all traces of serum which contains Trypsin inhibitor. Then, 2–3 ml of Trypsin EDTA solution was added and the cells were observed under an inverted microscope until the cell layer is dispersed (usually within 5–15 min.). A volume of 6 to 8 ml of complete growth medium was added and the cells were aspirated by gently pipetting. The cell suspension was transferred to the centrifuge tube with the culture medium and centrifuged at approximately 125 ×g for 5 to 10 min. The supernatant was discarded and the cells were suspended in fresh growth medium then incubated at 37 °C for 24 h. After treatment of the cells with the serial concentrations of the test compounds or the control Staurosporine in DMSO (at concentrations of 200, 100, 10, 1 and 0.1 µM), incubation was carried out for 48 h at 37 °C, then the plates were examined under the inverted microscope and proceeded for the MTT assay. The MTT method of monitoring in vitro cytotoxicity is well suited for use with multiwell plates. For best results, cells in the log phase of growth should be employed and final cell number should not exceed 10^6 cells/cm^2. Each test should include a blank containing complete medium without cells. Cell cultures were removed from the incubator into laminar flow hood. Each vial of MTT [M-5655] was reconstituted to be used with 3 ml of medium or balanced salt solution without phenol red and serum and the reconstituted MTT was added in an amount equal to 10% of the culture medium volume. Then the cultures were returned to the incubator for 2–4 h depending on the cell type and the maximum cell density. After the incubation period, the cultures were removed from incubator and the resulting formazan crystals were dissolved by adding an amount of MTT solvent (solubilisation solution) [M-8910] equal to the original culture medium volume. Gentle mixing in a gyratory shaker enhanced dissolution. Occasionally pipetting up and down [trituration] may be required to completely dissolve the MTT formazan crystals. The absorbance was measured at a wavelength of 450 nm using Bioline ELIZA reader. The background absorbance of the multiwell plates was measured at 690 nm and subtracted from the 450 nm measurement. The results are shown in Table 2 and graphically represented in Figure 5. […] The results in terms of IC50 in µM are given in Table 2 and represented graphically in Figure 5.

[4] = test system: human colon adenocarcinoma (HCT116); experiment: In vitro cytotoxic activity, MTT method, HCT116; format: cell-based; settings: 48 h incubation, means of three experiments
Protocol: Cell line cells were obtained from American Type Culture Collection (ATCC, Manassas, VA). The cell lines used in this study were human breast adenocarcinoma (MCF7) and human colon adenocarcinoma (HCT116). The cells were cultured using DMEM (Invitrogen/Life Technologies) supplemented with 10% FBS (Hyclone), 10 µg/mL insulin (Sigma) and 1% penicillin-streptomycin. All of the other chemicals and reagents were from Sigma or Invitrogen. […] The culture medium was removed to a centrifuge tube. The cell layer was rinsed with 0.25% (w/v) Trypsin 0.53 mM EDTA solution to remove all traces of serum which contains Trypsin inhibitor. Then, 2–3 ml of Trypsin EDTA solution was added and the cells were observed under an inverted microscope until the cell layer is dispersed (usually within 5–15 min.). A volume of 6 to 8 ml of complete growth medium was added and the cells were aspirated by gently pipetting. The cell suspension was transferred to the centrifuge tube with the culture medium and centrifuged at approximately 125 ×g for 5 to 10 min. The supernatant was discarded and the cells were suspended in fresh growth medium then incubated at 37 °C for 24 h. After treatment of the cells with the serial concentrations of the test compounds or the control Staurosporine in DMSO (at concentrations of 200, 100, 10, 1 and 0.1 µM), incubation was carried out for 48 h at 37 °C, then the plates were examined under the inverted microscope and proceeded for the MTT assay. The MTT method of monitoring in vitro cytotoxicity is well suited for use with multiwell plates. For best results, cells in the log phase of growth should be employed and final cell number should not exceed 10^6 cells/cm^2. Each test should include a blank containing complete medium without cells. Cell cultures were removed from the incubator into laminar flow hood. Each vial of MTT [M-5655] was reconstituted to be used with 3 ml of medium or balanced salt solution without phenol red and serum and the reconstituted MTT was added in an amount equal to 10% of the culture medium volume. Then the cultures were returned to the incubator for 2–4 h depending on the cell type and the maximum cell density. After the incubation period, the cultures were removed from incubator and the resulting formazan crystals were dissolved by adding an amount of MTT solvent (solubilisation solution) [M-8910] equal to the original culture medium volume. Gentle mixing in a gyratory shaker enhanced dissolution. Occasionally pipetting up and down [trituration] may be required to completely dissolve the MTT formazan crystals. The absorbance was measured at a wavelength of 450 nm using Bioline ELIZA reader. The background absorbance of the multiwell plates was measured at 690 nm and subtracted from the 450 nm measurement. […]

[5] = test system: pim-2; settings: cited from earlier work
[6] = previous work, 2-aryl-2,3-dihydro derivatives ref 9, read-out: IC50 pim-1 inhibition

| Structure (SMILES) | melting point | inhibition at 25 µM ([2]; pim-1 kinase, 25 µM) | IC50 ([2]; pim-1 kinase) | other results |
| --- | --- | --- | --- | --- |
| Cc1nc2sc3c(c2c(C)c1Br)NC(c1ccccc1C(F)(F)F)NC3=O (centres unmarked) [Vc] |  |  |  | IC50 [1, 6]: 1970 nM |
| Cc1nc2sc3c(c2c(C)c1Br)NC(c1ccc(O)cc1O)NC3=O (centres unmarked) [Compound 3d, 8-Bromo-2-(2,4-dihydroxyphenyl)-7,9-dimethyl-2,3-dihydropyrido[3′,2′:4,5]thieno[3,2-d]pyrimidin-4(1H)-one] | 290 to 291 °C | 81% | 1340 nM |  |
| CN[C@@H]1C[C@H]2O[C@@](C)([C@@H]1OC)n1c3ccccc3c3c4c(c5c6ccccc6n2c5c31)C(=O)NC4 [Staurosporine, reference compound] |  |  |  | inhibition at 25 µM [2]: 94% |
| Cc1nc2sc3c(c2c(C)c1Br)NC(c1ccc(OCc2ccccc2)cc1)NC3=O (centres unmarked) [Compound 3a, 2-(4-(Benzyloxy)phenyl)-8-bromo-7,9-dimethyl-2,3-dihydropyrido[3′,2′:4,5]thieno[3,2-d]pyrimidin-4(1H)-one] | 255 to 256 °C | 83% | 960 nM |  |
| COc1ccc(C2NC(=O)c3sc4nc(C)c(Br)c(C)c4c3N2)cc1 (centres unmarked) [Compound 3h, 8-Bromo-2-(4-methoxyphenyl)-7,9-dimethyl-2,3-dihydropyrido[3′,2′:4,5]thieno[3,2-d]pyrimidin-4(1H)-one] | > 300 °C | 84% | 1170 nM |  |
| Cc1nc2sc3c(c2c(C)c1Br)NC(c1ccsc1)NC3=O (centres unmarked) [Compound 3j, 8-Bromo-7,9-dimethyl-2-(thiophen-3-yl)-2,3-dihydropyrido[3′,2′:4,5]thieno[3,2-d]pyrimidin-4(1H)-one] | 280 to 281 °C | 95% | 100 nM | IC50 ([3]; Homo sapiens, MCF7, 48 h): < 500 nM; IC50 [3]: 310 ± 20 nM; IC50 ([4]; Homo sapiens, HCT-116, 48 h): 4820 ± 210 nM |
| Cc1nc2c3sc4nc(C)c(Br)c(C)c4c3ncn2n1 [Compound 7a, 8-Bromo-2,7,9-trimethylpyrido[3′,2′:4,5]thieno[2,3-e][1,2,4]triazolo[1,5-c]pyrimidine] |  | 76% | 1760 nM |  |
| Cc1nc2sc3c(c2c(C)c1Br)NC(c1ccc(O)c(O)c1)NC3=O (centres unmarked) [Compound 3e, 8-Bromo-2-(3,4-dihydroxyphenyl)-7,9-dimethyl-2,3-dihydropyrido[3′,2′:4,5]thieno[3,2-d]pyrimidin-4(1H)-one] |  | 93% | 60 nM |  |
| Cc1nc2sc3c(c2c(C)c1Br)NC(c1ccc(Br)cc1)NC3=O (centres unmarked) [Compound 3b, 8-Bromo-2-(4-bromophenyl)-7,9-dimethyl-2,3-dihydropyrido[3′,2′:4,5]thieno[3,2-d]pyrimidin-4(1H)-one] | > 300 °C | 96% | 60 nM | IC50 ([3]; Homo sapiens, MCF7, 48 h): 1840 ± 120 nM; IC50 ([4]; Homo sapiens, HCT-116, 48 h): 2740 ± 150 nM |
| O=C(O)c1ccc2c(c1)nc(Nc1cccc(Cl)c1)c1ccncc12 [CX-4595] |  |  |  | IC50 ([1]; read-out: IC50 (pim-1)): 48 nM; IC50 [5]: 186 nM |
| Cc1nc2sc3c(c2c(C)c1Br)NC(c1ccc(Cl)cc1)NC3=O (centres unmarked) [Compound 3c, 8-Bromo-2-(4-chlorophenyl)-7,9-dimethyl-2,3-dihydropyrido[3′,2′:4,5]thieno[3,2-d]pyrimidin-4(1H)-one] | > 300 °C | 92% | 140 nM | IC50 ([3]; Homo sapiens, MCF7, 48 h): < 500 nM; IC50 [3]: 390 ± 70 nM |
| Cc1nc2sc3c(ncn4nc(C(F)(F)F)nc34)c2c(C)c1Br [Compound 7b, 8-Bromo-7,9-dimethyl-2-(trifluoromethyl)pyrido[3′,2′:4,5]thieno[2,3-e][1,2,4]triazolo[1,5-c]pyrimidine] | 199 to 200 °C | 93% | 80 nM | IC50 ([3]; Homo sapiens, MCF7, 48 h): 4620 ± 140 nM; IC50 [4]: 650 ± 40 nM; IC50 ([4]; Homo sapiens, HCT-116, 48 h): < 1000 nM |
| COc1cc(C2NC(=O)c3sc4nc(C)c(Br)c(C)c4c3N2)ccc1O (centres unmarked) [Compound 3g, 8-Bromo-2-(4-hydroxy-3-methoxyphenyl)-7,9-dimethyl-2,3-dihydropyrido[3′,2′:4,5]thieno[3,2-d]pyrimidin-4(1H)-one] |  | 92% | 80 nM | IC50 ([3]; Homo sapiens, MCF7, 48 h): < 500 nM; IC50 [3]: 460 ± 90 nM |
| CCOC(=O)Cc1nc2c3sc4nc(C)c(Br)c(C)c4c3ncn2n1 [Compound 8, ethyl 2-(8-bromo-7,9-dimethylpyrido[3′,2′:4,5]thieno[2,3-e][1,2,4]triazolo[1,5-c]pyrimidin-2-yl)acetate] | 198 to 199 °C | 95% | 100 nM | IC50 ([3]; Homo sapiens, MCF7, 48 h): < 500 nM; IC50 [3]: 410 ± 30 nM |
| Cc1nc2sc3c(ncn4ncnc34)c2c(C)c1Br [Compound 6, 8-bromo-7,9-dimethylpyrido[3′,2′:4,5]thieno[2,3-e][1,2,4]triazolo[1,5-c]pyrimidine] | 277 to 278 °C | 81% | 1080 nM |  |
| Cc1nc2sc3c(c2c(C)c1Br)NC(c1ccc(F)cc1)NC3=O (centres unmarked) [Compound 3f, 8-Bromo-2-(4-fluorophenyl)-7,9-dimethyl-2,3-dihydropyrido[3′,2′:4,5]thieno[3,2-d]pyrimidin-4(1H)-one] | > 300 °C | 89% | 1000 nM |  |
| Cc1nc2sc3c(c2c(C)c1Br)NC(c1ccccc1O)NC3=O (centres unmarked) [Vb] |  |  |  | IC50 [1, 6]: 1380 nM |
| Cc1nc2sc3c(=N)n(N=Cc4ccccc4C(F)(F)F)cnc3c2c(C)c1Br [Compound 9b, 8-Bromo-4-imino-7,9-dimethyl-N-(2-(trifluoromethyl)benzylidene)pyrido[3′,2′:4,5]thieno[3,2-d]pyrimidin-3(4H)-amine] | > 300 °C | 89% | 220 nM |  |
| Cc1nc2sc3c(c2c(C)c1Br)NC(c1ccccc1Cl)NC3=O (centres unmarked) [Va] |  |  |  | IC50 [1, 6]: 1180 nM |
| COc1cc(C2NC(=O)c3sc4nc(C)c(Br)c(C)c4c3N2)cc(OC)c1OC (centres unmarked) [Compound 3i, 8-Bromo-7,9-dimethyl-2-(3,4,5-trimethoxyphenyl)-2,3-dihydropyrido[3′,2′:4,5]thieno[3,2-d]pyrimidin-4(1H)-one] | > 300 °C | 81% | 930 nM |  |
| Cc1nc2sc3c(=N)n(N=Cc4ccc(Br)cc4)cnc3c2c(C)c1Br [Compound 9a, 8-Bromo-N-(4-bromobenzylidene)-4-imino-7,9-dimethylpyrido[3′,2′:4,5]thieno[3,2-d]pyrimidin-3(4H)-amine] | > 300 °C | 88% | 520 nM |  |
